Numbered stars: 1 amine (or outer) side, 2 acyl side, 3 side chain; on linkers, the order of the positions; unused ones are H or OH. Bridge positions count the residues as written; N and C are the ends. Square brackets hold non-standard residues; d marks the D form. Peptide text beside a SMILES is read from it. * marks the point of attachment. hPhe(3-Cl-4-CF3) = N[C@@H](CCc1ccc(C(F)(F)F)c(Cl)c1)C(=O)O; hPhe(3-F,4-CF3) = N[C@@H](CCc1ccc(C(F)(F)F)c(F)c1)C(=O)O; NEtPhe(2-Cl) = CCN[C@@H](Cc1ccccc1Cl)C(=O)O; NMedβ3hAla = C[C@H](CC(=O)[*:2])N(C)[*:1]; NMeAla(cPent) = CN[C@@H](CC1CCCC1)C(=O)O; NMeGly(cPent) = CN[C@H](C(=O)O)C1CCCC1; NMeGly(cBu) = CN[C@H](C(=O)O)C1CCC1; NMeCha = CN[C@@H](CC1CCCCC1)C(=O)O; Hyp = O=C(O)[C@@H]1C[C@@H](O)CN1; NMeChg = CN[C@H](C(=O)O)C1CCCCC1; NMeI = CC[C@H](C)[C@H](NC)C(=O)O; NMeD = CN[C@@H](CC(=O)O)C(=O)O; NMeL = CN[C@@H](CC(C)C)C(=O)O; NMeNle = CCCC[C@H](NC)C(=O)O; NMeV = CN[C@H](C(=O)O)C(C)C; d(β3hA) = C[C@@H](N)CC(=O)O; NMeS = CN[C@@H](CO)C(=O)O; Morpholide = C1CN(*)CCO1; NMeA = CN[C@@H](C)C(=O)O; Piperidide = C1CCN(*)CC1; dNMeA = CN[C@H](C)C(=O)O; Ac5c = NC1(C(=O)O)CCCC1; Aze = O=C(O)[C@@H]1CCN1; Ethyl(2,2-F2) = FC(F)C*; Sar = CNCC(=O)O; Propyl = CCC*
Target: protein-protein interaction between Kras and SOS1 (biotin-tagged human Kras loaded with GDP, His-tagged human SOS1) (Homo sapiens (Human), UniProt P01116, G12D)
Test: Protein-protein interaction inhibition between Kras and SOS1 (KrasG12D-SOS PPI) using AlphaScreen;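 further: kras produced in E. coli, Ni-coupled donor beads and streptavidin acceptor beads, excitation 680 nm with emission detected at 520–620 nm via singlet oxygen transfer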
Format: biochemical
Conditions: AlphaScreen; biotin-tagged human Kras loaded with GDP, His-tagged human SOS1; read-out: KRAS G12D-SOS PPI IC50

| SMILES | IC50 [µM] |
| --- | --- |
| CCCC[C@H]1C(=O)N2CC[C@H]2C(=O)N(C)[C@@H](CC2CCCCC2)C(=O)N(C)CC(=O)N[C@@H](CCc2ccc(C(F)(F)F)c(Cl)c2)C(=O)N2CCC[C@H]2C(=O)NC2(CCCC2)C(=O)N(C)[C@@H](C(C)C)C(=O)N(C)[C@H](C(=O)N2CCCCC2)CC(=O)N(C)[C@@H](CC(C)C)C(=O)N[C@@H]([C@@H](C)CC)C(=O)N1C [Compound 1596] ([NMeL]I[NMeNle][Aze][NMeCha][Sar][hPhe(3-Cl-4-CF3)]P[Ac5c][NMeV][NMeD]-Piperidide; lactam N-11) | 0.023 |
| CC[C@H](C)[C@@H]1NC(=O)[C@H](CC2CCCC2)N(C)C(=O)C[C@@H](C(=O)N(C)C)N(C)C(=O)[C@H](C2CCCC2)N(C)C(=O)C2(CCCC2)NC(=O)[C@@H]2CCCN2C(=O)[C@H](CCc2ccc(C(F)(F)F)c(F)c2)NC(=O)CN(C)C(=O)[C@H](CC2CCCCC2)N(C)C(=O)[C@@H]2CCN2C(=O)[C@H](C)NC1=O [Compound 1340] ([NMeAla(cPent)]IA[Aze][NMeCha][Sar][hPhe(3-F,4-CF3)]P[Ac5c][NMeGly(cPent)][NMeD]-NMe2; lactam N-11) | 0.0012 |
| CC[C@H](C)[C@@H]1NC(=O)[C@H](C)N(C)C(=O)C[C@@H](C)NC(=O)[C@H](C2CCCC2)N(C)C(=O)C2(CCCC2)NC(=O)[C@@H]2CCCN2C(=O)[C@H](CCc2ccc(C(F)(F)F)c(Cl)c2)NC(=O)[C@@H](C)N(C)C(=O)[C@H](C(C)C)N(C)C(=O)[C@@H]2CCN2C(=O)[C@H](C)N(C)C1=O [Compound 1066] (cyclo([Ac5c][NMeGly(cPent)][d(β3hA)][NMeA]I[NMeA][Aze][NMeV][dNMeA][hPhe(3-Cl-4-CF3)]P)) | 0.024 |
| CC[C@H](C)[C@@H]1NC(=O)[C@H](CC(C)C)N(C)C(=O)C[C@@H](C(=O)N2CCCCC2)N(C)C(=O)[C@H](C2CCCCC2)N(C)C(=O)C2(CCCC2)NC(=O)[C@@H]2C[C@@H](OCC(F)F)CN2C(=O)[C@H](CCc2ccc(C(F)(F)F)c(Cl)c2)NC(=O)CN(C)C(=O)[C@H](CC2CCCCC2)N(C)C(=O)CN(C)C(=O)CN(C)C1=O [Compound 2119] ([NMeL]I[Sar][Sar][NMeCha][Sar][hPhe(3-Cl-4-CF3)][Hyp](Ethyl(2,2-F2))[Ac5c][NMeChg][NMeD]-Piperidide; lactam N-11) | 0.00039 |
| CC[C@H](C)[C@@H]1NC(=O)[C@H](C)N(C)C(=O)C[C@@H](C(=O)N2CCOCC2)N(C)C(=O)[C@H](C(C)C)N(C)C(=O)C2(CCCC2)NC(=O)[C@H](Cc2ccccc2Cl)N(CC)C(=O)[C@H](CCc2ccc(C(F)(F)F)c(Cl)c2)NC(=O)CN(C)C(=O)[C@H](CC2CCCCC2)N(C)C(=O)CN(C)C(=O)CN(C)C1=O [Compound 2167] ([NMeA]I[Sar][Sar][NMeCha][Sar][hPhe(3-Cl-4-CF3)][NEtPhe(2-Cl)][Ac5c][NMeV][NMeD]-Morpholide; lactam N-11) | 0.38 |
| CCCOC[C@H]1C(=O)N(C)CC(=O)N[C@@H](CCc2ccc(C(F)(F)F)c(F)c2)C(=O)N2CCC[C@H]2C(=O)NC2(CCCC2)C(=O)N(C)[C@@H]([C@@H](C)CC)C(=O)N(C)[C@H](C)CC(=O)N(C)[C@@H](CC(C)C)C(=O)N[C@@H]([C@@H](C)CC)C(=O)N(C)[C@@H](C)C(=O)N2CC[C@H]2C(=O)N1C [Compound 694] (cyclo([Ac5c][NMeI][NMedβ3hAla][NMeL]I[NMeA][Aze][NMeS](Propyl)[Sar][hPhe(3-F,4-CF3)]P)) | 0.014 |
| CC[C@H](C)[C@@H]1NC(=O)[C@H](CC(C)C)N(C)C(=O)C[C@@H](C)N(C)C(=O)[C@H](C2CCCC2)N(C)C(=O)C2(CCCC2)NC(=O)[C@@H]2CCCN2C(=O)[C@H](CCc2ccc(C(F)(F)F)c(F)c2)NC(=O)CN(C)C(=O)[C@H](C2CCCC2)N(C)C(=O)[C@@H]2CCN2C(=O)[C@H](C)N(C)C1=O [Compound 386] (cyclo([Ac5c][NMeGly(cPent)][NMedβ3hAla][NMeL]I[NMeA][Aze][NMeGly(cPent)][Sar][hPhe(3-F,4-CF3)]P)) | 0.01 |
| CC[C@H](C)[C@@H]1NC(=O)[C@H](CC(C)C)N(C)C(=O)C[C@@H](C(=O)N2CCCCC2)N(C)C(=O)[C@H](C(C)C)N(C)C(=O)C2(CCCC2)NC(=O)[C@@H]2CCCN2C(=O)[C@H](CCc2ccc(C(F)(F)F)c(Cl)c2)NC(=O)CN(C)C(=O)[C@H](C2CCC2)N(C)C(=O)[C@@H]2CCN2C(=O)[C@H](C)N(C)C1=O [Compound 446] ([NMeL]I[NMeA][Aze][NMeGly(cBu)][Sar][hPhe(3-Cl-4-CF3)]P[Ac5c][NMeV][NMeD]-Piperidide; lactam N-11) | 0.0018 |

— patent US20240148821A1, “PHARMACEUTICAL USE OF CYCLIC PEPTIDE COMPOUND” (CHUGAI SEIYAKU KABUSHIKI KAISHA, priority 2021, published 2024)
